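All cell lines were grown in 96-well plates and treated with compound for 48 hours. GI50 = concentration required for 50% inhibition of growth. TGI marks complete inhibition of growth.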

These results are taken from PubChem BioAssay (NCI).

Holding throughout (experiment): NCI tumour cell line growth inhibition, 48 h
Test [1] relates to SNB-75 CNS.
For test [2], the system named is SF-295 CNS.
For test [3], the system named is SR leukemia.
Test [4] has as its system SN12C renal.
Test [5] relates to SNB-19 CNS.
For test [6], the system named is ACHN renal.
Test [7] has as its system UACC-257 melanoma.
Test [8] deals with 786-0 renal.
Test [9] concerns SK-MEL-5 melanoma.
Test [10] deals with TK-10 renal.
Test [11] deals with T-47D breast.

On to `O=C(O)C(Cc1ccccc1)NCc1c(O)ccc2c(-c3ccccc3)cc(=O)oc12` (stereo not drawn), for which the TGI in [1], in [2], in [3], in test [4], in test [5] and in test [6] was more than 100 µM each time. Besides, the TGI in test [7], in test [8], in test [9], in [10] and in test [11] was more than 100 µM each time.
In the case of `C=C(C)C1CC(=O)C(C)=C(O)C1` (stereo not drawn), the TGI in test [1], in [2], in test [3], in test [4], in test [5] and in test [6] was more than 100 µM throughout. The TGI in test [7], in test [8], in test [9], in [10] and in test [11] was more than 100 µM throughout.
On to `O=C(Nc1ccccc1)N1CCN(C(=O)Nc2ccccc2)C1=S`, for which the TGI is 47.2 µM in test [1]; 58.4 µM in test [2]; more than 100 µM in [3]; more than 100 µM in test [4]; more than 100 µM in [6]; more than 100 µM in [7]. Further, the TGI in test [8], in test [9], in test [10] and in [11] was more than 100 µM in each case.
`Clc1ccc2c(NCCCCCCNc3ccnc4cc(Cl)ccc34)ccnc2c1`: the TGI was 8.61 µM in test [1]; 5.56 µM in [2]; 19.3 µM in test [3]; 16.6 µM in test [4]; 13.5 µM in [5]; 8.91 µM in [6]. The TGI in test [7] is 14.6 µM; in test [8], 4.15 µM; in test [9], 10.9 µM; in [10], 18.2 µM; in test [11], 5.42 µM.
As for `C[n+]1cccc2ccc3cccnc3c21`, the TGI in test [1] is 65.1 µM; in test [2] it was more than 100 µM; in test [3], more than 100 µM; in [4], more than 100 µM; in test [5], more than 100 µM; in [6] it was more than 100 µM. Also, the TGI was more than 100 µM in test [7]; more than 100 µM in test [8]; 42 µM in test [9]; more than 100 µM in [10]; 96.5 µM in [11].
Consider `CCC1(O)CC(CCN(Cc2ccccc2)C(=O)OCc2ccccc2)C(OCc2ccccc2)C1O` (stereo not drawn), for which the TGI is 25.7 µM in test [1]; 28.2 µM in test [2]; 34.9 µM in test [3]; 82 µM in test [4]; 31.6 µM in test [5]; 32.2 µM in test [6]. Also, the TGI came out at 34.7 µM in [7]; 39.3 µM in test [8]; 30.9 µM in [9]; 36.8 µM in [10]; 30.6 µM in test [11].
As to `COc1cccc2c1C(=O)c1c(O)c3c(c(O)c1C2=O)C[C@@](O)(C(C)=O)CC3OC1CC(OC2CC(N)C(O)C(C)O2)C(O)C(C)O1` (stereo partly drawn), the TGI in test [1] is 85.7 µM; in test [2], more than 100 µM; in [3], more than 70 µM; in test [4], more than 100 µM; in test [5] it was more than 85.1 µM; in test [6] it was more than 100 µM. Besides, the TGI in test [7], in [8], in test [9], in test [10] and in test [11] was more than 100 µM each time.
`CCN(CC)C(=S)SC(C(=O)Nc1nnc(-c2ccc(Cl)cc2)o1)c1ccccc1` (stereo not drawn): the TGI in test [2] was 48.2 µM; in [3], 38.3 µM; in test [4] it was 38.2 µM; in [5], more than 100 µM; in [6], 26.3 µM; in test [7] it was more than 100 µM. Also, the TGI worked out at 39 µM in test [8], 19.4 µM in test [9], 62.3 µM in test [10] and 59.7 µM in test [11].
For `COC(=O)c1c2c(cc3c1CC1(Cc4cc5c(c(C=O)c4C1)CCC5)C3)CCC2` (stereo not drawn), the TGI in test [1] is more than 100 µM; in test [2], more than 100 µM; in test [3], 53.7 µM; in test [5], more than 100 µM; in [6] it was more than 100 µM; in test [7] it was 71.3 µM. Also, the TGI in test [8] is more than 100 µM; in test [9], 37.2 µM; in test [10], more than 100 µM; in test [11] it was more than 100 µM.
As to `Cc1cn(CCCCCCOC(=O)NC(CCCNC(N)=O)C(=O)O)c(=O)[nH]c1=O` (stereo not drawn), the TGI in [1], in [2], in test [3], in test [4], in [5] and in test [6] was more than 100 µM throughout. Further, the TGI in test [7], in test [8], in [10] and in test [11] was more than 100 µM throughout.
Consider `CCOC(=O)c1c(N)sc2c1C(C(=O)OCC)CCCC2` (stereo not drawn), for which the TGI in test [1], in test [3], in test [4], in test [5], in [6] and in test [7] was more than 100 µM each time. The TGI in test [8] was more than 100 µM; in test [9], more than 100 µM; in test [10], more than 100 µM; in [11], 78.3 µM.
In the case of `C/C(=N\Nc1nc2ccccc2s1)c1ccncn1`, the TGI in test [1] is 24.4 µM; in test [2], 20.5 µM; in test [3], more than 100 µM; in [4], 18 µM; in test [5], more than 28.4 µM; in test [6], 11.8 µM. The TGI was more than 100 µM in [7], more than 72.4 µM in test [8], 7.08 µM in [9] and more than 100 µM in test [11].
For the molecule `ClC1=NN=C(c2c[nH]c3ccccc23)CC1NCc1ccccc1` (stereo not drawn), the TGI in test [1], in [2], in test [4], in [5], in test [6] and in [7] was more than 100 µM in each case. Further, the TGI in test [8], in [9], in test [10] and in [11] was more than 100 µM each time.
Regarding `O=C1c2cc3c(cc2-c2c1c1cc(F)c(F)cc1c(=O)n2CCCn1ccnc1)OCO3`, the GI50 was less than 0.01 µM in test [1]; less than 0.01 µM in [2]; less than 0.01 µM in [3]; less than 0.01 µM in test [5]; less than 0.01 µM in test [6]; 0.0969 µM in test [7]. Moreover, the values for the GI50 in test [9], in [10] and in test [11] were 0.02 µM, 0.25 µM and less than 0.01 µM, respectively. Further, the TGI was 0.11 µM in test [1]; 0.0133 µM in [2]; 16.6 µM in [3]; more than 100 µM in test [5]; 0.134 µM in [6]; 0.65 µM in [7]. In addition, the TGI in test [9] was 0.0852 µM; in test [10], more than 100 µM; in test [11] it was 0.0577 µM.
On to `CC(Nc1ccc(Cl)cc1)c1ccncc1` (stereo not drawn), for which the TGI in test [1], in [2], in test [4], in [5], in [6] and in [7] was more than 100 µM each time. Moreover, the TGI in test [8], in test [9], in [10] and in [11] was more than 100 µM throughout.
In the case of `CCC1(c2ccc(N3C(=O)c4cccc5cc([N+](=O)[O-])cc(c45)C3=O)cc2)CCC(=O)NC1=O` (stereo not drawn), the TGI in [1] is 68 µM; in test [2], 41.4 µM; in [4], 24.8 µM; in test [5], more than 74.3 µM; in test [6], 43.5 µM; in [7], more than 100 µM. For the same molecule, the TGI was 21.6 µM in [8], more than 100 µM in [9], more than 79.1 µM in test [10] and more than 100 µM in test [11].
As for `C/C(=C1\N=C(c2ccccc2)OC1=O)c1ccccc1`, the TGI in test [1], in test [2], in [3], in test [5], in test [6] and in test [7] was more than 100 µM throughout. For the same molecule, the TGI in test [9], in [10] and in [11] was more than 100 µM throughout.
Regarding `Nc1[nH]c(=O)nc2c1ncn2C1OC(CO)C(O)C1O` (stereo not drawn), the TGI is 20.6 µM in test [1]; more than 100 µM in test [2]; more than 100 µM in test [4]; more than 100 µM in [5]; more than 100 µM in test [6]; more than 100 µM in [7]. Moreover, the TGI is more than 100 µM in test [8], more than 100 µM in test [9], more than 100 µM in [10] and 70.3 µM in test [11].
For the molecule `N[C@@H](CCC(=O)NC(Cc1ccccc1)C(=O)NCP(=O)(O)O)C(=O)O` (stereo partly drawn), the TGI in test [2], in test [3], in test [4], in [5], in [6] and in test [7] was more than 100 µM throughout. Besides, the TGI in test [8], in test [9], in [10] and in [11] was more than 100 µM in each case.
For the molecule `COP(=O)(OC)OCN(C)CC/C=C(\C)CC/C=C(\C)CCC=C(C)C`, the TGI in test [1] came to 28 µM; in [2], 32.5 µM; in test [4] it was 32.1 µM; in test [5], 25.6 µM; in [6], 64.2 µM; in test [7], 19.2 µM. The TGI in test [8] stood at 31.3 µM; in [9], 25.3 µM; in test [10] it was 21.9 µM; in test [11], 43.9 µM.
Take `Clc1ccc2c(c1)N(CCCN1CCCC13CCCCC3)c1ccccc1S2`: the TGI in [2] stood at 29.2 µM; in test [3] it was 17.5 µM; in [4] it was 26.8 µM; in test [5], 34.3 µM; in test [6], 47.5 µM; in test [7], 24.4 µM. For the same molecule, the TGI was 23.7 µM in test [8], more than 56 µM in test [9], 29.7 µM in test [10] and 30 µM in test [11].
Turning to `O=P1(N(CCCl)CCCl)Oc2ccc(Cl)cc2C(C(Cl)(Cl)Cl)c2cc(Cl)ccc2O1` (stereo not drawn), the TGI was 37.9 µM in test [1]; 23.7 µM in test [2]; 30.6 µM in test [3]; 57.6 µM in [4]; more than 100 µM in test [6]; more than 100 µM in [7]. Moreover, the TGI is 30.7 µM in test [8], 24 µM in test [9], 89.5 µM in [10] and more than 100 µM in [11].
For `CCOP(=O)(/C=C/n1cc(C)c(=O)[nH]c1=O)OCC`, the TGI in test [1], in test [2], in test [4], in [5], in test [6] and in [7] was more than 100 µM throughout. Moreover, the TGI in test [8], in [9], in test [10] and in test [11] was more than 100 µM throughout.
Consider `Nc1c(C(=O)c2ccc(Cl)c(Cl)c2)[nH]c(NCc2ccccc2)c1C(=S)Nc1ccccc1`, for which the TGI is 24.1 µM in [1]; 15 µM in [2]; more than 100 µM in test [3]; 29.2 µM in test [4]; 37.7 µM in [5]; 28.1 µM in test [6]. The TGI came out at 30.5 µM in test [7], 27.9 µM in [8], 33.4 µM in test [10] and 81.2 µM in [11].
Regarding `COC(=O)C1=C(CCCCO[Si](C)(C)C(C)(C)C)NC(=O)N2[C@H](CCOCc3ccccc3)CC[C@@H]12`, the TGI in [1], in [2], in test [4], in test [5], in [6] and in test [7] was more than 100 µM throughout. The TGI was more than 100 µM in [8], 28.3 µM in test [9], more than 100 µM in test [10] and more than 100 µM in test [11].
Regarding `CC(O)c1nc(C#N)c(N)o1` (stereo not drawn), the TGI in [1], in test [2], in test [4], in test [5], in test [6] and in [7] was more than 100 µM throughout. In addition, the TGI in [8], in test [9], in [10] and in test [11] was more than 100 µM throughout.
